# Measured values published in patent US9839642B2, “Beta-tetrazolyl-propionic acids as metallo-beta-lactamase inhibitors” (priority 2014, dated 2017).
# Tests used:
# [1] = molecular target: IMP-1 (Serratia marcescens, UniProt P52699); test: Enzyme activity: determination of IC50, fluorescence assay with CCF2-FA substrate; assay type: biochemical; conditions: enzyme 2 pM, CCF2-FA 1.25 μM, 2 hours at 25° C.; read-out: IMP1 IC50
# Method: (§1) Enzyme Activity: Determination of IC50
# (§2) The Class B enzyme activities were measured in the presence of a compound of the EXAMPLES as a test inhibitor in a fluorescence assay against a commercially available substrate consisting of a cephalosporin core linking 7-hydroxycoumarin to fluorescein (CCF2-FA; Life Technologies, Grand Island, N.Y.). The enzyme (NDM-1, IMP-1 or VIM-1) and the substrate were diluted in 100 mM KH2PO4 buffer (pH 7) containing 0.005% Tween-20 and 10 μM ZnSO4. In the assay, the final concentration of enzyme was 1 pM, 2 pM and 30 pM for NDM-1, IMP-1 and VIM-1, respectively, and the final concentration of CCF2-FA was 1.25 μM. The test inhibitor was dissolved in DMSO and diluted 1:50 in the assay, resulting in a final concentration range of 20 μM to 0.00063 μM. In a 384-well microplate, the test inhibitor was incubated with the metallo-β-lactamase enzyme and the substrate for 2 hours at 25° C. Fluorescence at 460 nm following excitation at 405 nm was measured. The IC50 value was determined from semi-logarithmic plots of enzyme inhibition versus inhibitor concentration, with a curve generated using a 4-parameter fit.
# [2] = molecular target: NDM-1 (Klebsiella pneumoniae, UniProt C7C422); test: as above; assay type: biochemical; conditions: enzyme 1 pM, CCF2-FA 1.25 μM, 2 hours at 25° C.; read-out: NDM1 IC50
# Method: as §1, §2
# [3] = molecular target: VIM-1 (Pseudomonas aeruginosa, UniProt A0A0F7KYQ8); test: as above; assay type: biochemical; conditions: enzyme 30 pM, CCF2-FA 1.25 μM, 2 hours at 25° C.; read-out: VIM1 IC50
# Method: as §1, §2
# [4] = test system: Escherichia coli expressing NDM-1 (CLB30016); test: Antibiotic potentiation activity: synergistic concentration (MITC95) with imipenem, growth by OD600; assay type: cell-based; conditions: 95% inhibition of bacterial growth, strain CLB30016
# Method: (§3) Antibiotic Potentiation Activity: Determination of Synergistic Concentration
# (§4) The bacterial strains tested included the clinical strains Escherichia coli expressing NDM-1 (CLB30005, CLB30016), Serratia marcescens expressing IMP-1 (CL5741), and Klebsiella pneumoniae expressing VIM-1 (IHMA599644). Inhibitor activity was measured in the presence and absence of imipenem or ceftazidime in a 384-well microplate.
# (§5) The clinical strains CLB30016, CL5741, and IHMA599644 were grown on trypticase soy agar containing 5% sheep's blood. The clinical strain CLB30005 was grown on Mueller Hinton broth agar containing 8 μg/ml imipenem. The bacteria on agar plates were incubated overnight at 35° C. with ambient humidity (achieved from an open pan of water inside the incubator). The following day, individual colonies from each clinical strain were picked and resuspended in 5 ml saline to attain an OD600 of 0.14, 0.11, 0.15 and 0.13, for CLB30005, CLB30016, CL5741 and IHMA599644, respectively. These were further diluted 1:100 into 1.1×CAMHB and used to inoculate the test wells as described below.
# (§6) Imipenem in 10 mM 3-(N-morpholino)propanesulfonic acid (MOPS, pH 7) was stored in single use aliquots at −80° C. Test inhibitors were dissolved in DMSO and diluted 1:50 in the assay, resulting in a final concentration range of 200 μM to 0.195 μM. On the day of the assay, 4 μl of antibiotic was added to 45 μl of bacteria followed by 1 μl of test compound and mixed by pipetting and with an orbital shaker. The concentration of antibiotic used in the assay was 1 μg/ml or 4 μg/ml. Microplates were covered and incubated at 35° C. for 22 hours to 24 hours. At the end of the incubation, absorbance was determined using a spectrophotometer. The synergistic concentration of MBLI was determined by identifying the lowest concentration of test compound in the presence of a given concentration of antibiotic that was required to inhibit 95% of the growth of the bacteria.
# (§7) Representative compounds of the present invention display a synergistic effect. For example, representative compounds of EXAMPLES 1-456 were determined to restore susceptibility to imipenem at concentrations of 200 μM or less.
# [5] = test system: Klebsiella pneumoniae expressing VIM-1 (IHMA599644); test: as above; assay type: cell-based; conditions: 95% inhibition of bacterial growth, strain IHMA599644
# Method: as §3, §4, §5, §6, §7
# [6] = test system: Serratia marcescens expressing IMP-1 (CL5741); test: as above; assay type: cell-based; conditions: 95% inhibition of bacterial growth, strain CL5741
# Method: as §3, §4, §5, §6, §7
# IMP-1, sequence (P52699 19-246, looked up, species assumed): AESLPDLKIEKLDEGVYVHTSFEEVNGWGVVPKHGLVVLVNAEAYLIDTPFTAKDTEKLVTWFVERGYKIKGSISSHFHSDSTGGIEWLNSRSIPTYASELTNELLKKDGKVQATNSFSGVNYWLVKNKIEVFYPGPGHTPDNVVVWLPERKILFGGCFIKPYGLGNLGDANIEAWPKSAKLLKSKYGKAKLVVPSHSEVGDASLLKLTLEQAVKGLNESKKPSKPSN
# NDM-1, sequence (C7C422 29-270, looked up, species assumed): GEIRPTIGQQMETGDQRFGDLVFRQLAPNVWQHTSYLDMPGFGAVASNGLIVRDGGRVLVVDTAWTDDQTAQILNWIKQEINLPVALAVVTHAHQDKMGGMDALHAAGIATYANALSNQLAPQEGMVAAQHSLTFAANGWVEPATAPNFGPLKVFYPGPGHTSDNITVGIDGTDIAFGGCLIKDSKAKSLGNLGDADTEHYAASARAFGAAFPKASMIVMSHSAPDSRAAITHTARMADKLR
SMILES,IC50 [1] [µM],IC50 [2] [µM],IC50 [3] [µM],NDM1 EC30016 MITC95 [4] [µM],VIM1 KP599644 MITC95 [5] [µM],IMP1 SM5741 MITC95 [6] [µM]
"CCC[C@H](C(=O)O)[C@H](Cc1ccccc1Br)c1nnn[nH]1 [Example 26, (2S)-2-[(1S)-2-(2-bromophenyl)-1-(1H-tetrazol-5-yl)ethyl]pentanoic acid]",0.57,0.0099,0.0024,3.1,18.8,12.5
"CCC[C@H](C(=O)O)[C@H](Cc1cccc(C#N)c1)c1nn[nH]n1 [Example 41, (2S)-2-[(1S)-2-(3-cyanophenyl)-1-(1H-tetrazol-5-yl)ethyl]pentanoic acid]",0.59,0.06,0.00087,18.8,18.8,37.5
CC(C)C[C@H](C(=O)O)[C@H](Cc1ccc(C#N)cc1)c1nnn[nH]1 [Example 42],0.19,0.074,0.0014,18.8,37.5,12.5
"CCC[C@H](C(=O)O)[C@H](Cc1ccccc1C#N)c1nnn[nH]1 [Example 43, (2S)-2-[(1S)-2-(2-cyanophenyl)-1-(1H-tetrazol-5-yl)ethyl]pentanoic acid]",1.6,0.022,0.0032,4.7,31,50
"CCC[C@H](C(=O)O)[C@H](Cc1ccc(-c2nnn[nH]2)cc1)c1nn[nH]n1 [Example 44, (S)-2-((S)-2-(4-(1H-tetrazol-5-yl)phenyl)-1-(2H-tetrazol-5-yl)ethyl)pentanoic acid]",0.64,0.021,0.0055,150,200,18.8
"CCC[C@H](C(=O)O)[C@H](Cc1cccc(C(N)=O)c1)c1nn[nH]n1 [Example 46, (2S)-2-[(1S)-2-(3-carbamoylphenyl)-1-(2H-tetrazol-5-yl)ethyl]pentanoic acid]",1.6,0.07,0.0059,9.4,12.5,37.5
"CCC[C@H](C(=O)O)[C@H](Cc1ccccc1C(N)=O)c1nnn[nH]1 [Example 47, (2S)-2-[(1S)-2-(2-carbamoylphenyl)-1-(1H-tetrazol-5-yl)ethyl]pentanoic acid]",7.2,0.12,0.073,9.4,37.5,200
"CC(C)C[C@H](C(=O)O)[C@H](Cc1ccc(C(N)=O)cc1)c1nnn[nH]1 [Example 48, (2S)-2-[(1S)-2-(4-carbamoylphenyl)-1-(1H-tetrazol-5-yl)ethyl]-4-methylpentanoic acid]",0.13,0.043,0.0022,6.2,50,4.7
"CC(C)C[C@H](C(=O)O)[C@H](Cc1ccc(S(C)(=O)=O)cc1)c1nn[nH]n1 [Example 50, (S)-4-methyl-2-((S)-2-(4-(methylsulfonyl)phenyl)-1-(2H-tetrazol-5-yl)ethyl)pentanoic acid]",0.1,0.047,0.0066,25,50,6.2
"CC(C)CC(C(=O)O)[C@H](Cc1ccc(S(C)(=O)=O)cc1)c1nn[nH]n1 (stereo partly drawn) [Example 51, CAN-4-methyl-2-((S)-2-(4-(methylsulfonyl)phenyl)-1-(2H-tetrazol-5-yl)ethyl)pentanoic acid]",0.54,0.18,0.025,75,150,25
"CCC[C@H](C(=O)O)[C@H](Cc1ccc(C)cc1)c1nn[nH]n1 [Example 52, (S)-2-((S)-1-(2H-tetrazol-5-yl)-2-(p-tolyl)ethyl)pentanoic acid]",0.68,0.087,0.01,18.8,25,18.8
"Cc1ccc(C[C@H](c2nn[nH]n2)[C@H](CC(C)C)C(=O)O)cc1 [Example 53, (S)-2-((S)-1-(2H-tetrazol-5-yl)-2-(p-tolyl)ethyl)-4-methylpentanoic acid]",0.089,0.037,0.0058,18.8,75,4.7
"CCC[C@H](C(=O)O)[C@H](Cc1ccc(CN)cc1)c1nnn[nH]1 [Example 54, (S)-2-((S)-2-(4-(aminomethyl)phenyl)-1-(1H-tetrazol-5-yl)ethyl)pentanoic acid]",13,1.6,0.04,18.8,12.5,75
"CCC[C@H](C(=O)O)[C@H](Cc1ccc(CN2CCNCC2)cc1)c1nnn[nH]1 [Example 55, (S)-2-((S)-2-(4-(piperazin-1-ylmethyl)phenyl)-1-(1H-tetrazol-5-yl)ethyl)pentanoic acid]",0.81,0.12,0.019,6.2,25,18.8
"CC(C)C[C@H](C(=O)O)[C@H](Cc1ccc(CN)c(F)c1)c1nnn[nH]1 [Example 56, (S)-2-((S)-2-(4-(aminomethyl)-3-fluorophenyl)-1-(1H-tetrazol-5-yl)ethyl)-4-methylpentanoic acid]",1.7,0.52,0.01,9.4,18.8,47
"CCC[C@@H](C(=O)O)[C@H](Cc1ccc(-c2ccc(N3CCNCC3)nc2)cc1)c1nnn[nH]1 [Example 57, (2R)-2-[(1S)-2-[4-(6-piperazin-1-ylpyridin-3-yl)phenyl]-1-(1H-tetrazol-5-yl)ethyl]pentanoic acid]",2.8,0.65,0.17,200,>200,150
"CC(C)[C@H](C(=O)O)[C@H](Cc1ccc(C2=CCNC2)cc1)c1nnn[nH]1 [Example 60, (2S,3S)-4-(4-(2,5-dihydro-1H-pyrrol-3-yl)phenyl)-2-isopropyl-3-(1H-tetrazol-5-yl)butanoic acid]",0.76,0.056,0.0019,3.1,4.7,9.4
"O=C(O)[C@@H](C1CCCC1)[C@H](Cc1ccc(C2=CCNC2)cc1)c1nnn[nH]1 [Example 61, (2S,3S)-2-cyclopentyl-4-(4-(2,5-dihydro-1H-pyrrol-3-yl)phenyl)-3-(1H-tetrazol-5-yl)butanoic acid]",0.15,0.032,0.0019,2.3,6.2,3.9
